Source: patent US12616713B2, “Methods for enhancing vascular density” (priority 2016, dated 2026)
Entries after “also recorded” stand apart in the source; their conditions may differ.

Tests used:
HUVECs = assay: Cell proliferation assay, HUVECs; format: cell-based, human; settings: NMN 500 μM, 48 h, complete growth medium
Experimental: ECs (0.1×10^5 cells) were seeded in a 48-well plate and incubated with PBS (vehicle) or NMN (500 μM) in complete growth medium for 48 h. At the end of the incubation time, the cells were harvested and resuspended in Opti-MEM medium. Cell number was determined using flow cytometry (FACSCanto II Analyzer, BD Biosciences, USA).

Notch signaling = assay: Notch target genes and NICD in VEGF- or Dll4-stimulated HAECs; format: cell-based, human
Experimental: Dll4 and VEGF stimulation of ECs. The ECs to be stimulated were serum-starved overnight and transferred to media containing VEGF (50 ng/mL) or to Dll4-coated plates, and then incubated for indicated time. Dll4 coating was performed as described before (Guarani et al., 2011, Nature 473, 234-238). Lyophilized recombinant Dll4 (R&D Systems) were reconstituted in PBS containing 0.1% bovine serum albumin. The culture dishes were coated with Dll4 (0.5 μg/mL) in 0.1 gelatin solution for 1 hr at 37° C.
Total mRNA was isolated from cells and tissues using TRIzol (Life Technologies). cDNAs were synthesized from 1 μg of total RNA using M-MLV reverse transcriptase (Biorad). qPCR was performed with LightCycler […] SYBR Green I Mastermix (Roche) using the LightCycler 480 System (Roche) according to the manufacturer's instructions. Relative mRNA expression levels were calculated using the ΔΔCt method.
SDS-PAGE and Western blot analysis were performed according to standard procedures and detected with the ECL detection kit (Bio-rad, Australia). […] Quantification of band intensities by densitometry was carried out using ImageJ software.

C57BL/6J mice [1] = assay: Treadmill exercise training with or without NMN, muscle capillaries; format: in vivo, mouse
Experimental: Mice were acclimatized to the treadmill system for 3 days prior to the start of exercise training by running at 10 m/min for 20 min. The animals that were successfully acclimatized were then subjected to running at 15-20 m/min at 5° inclination for 30 minutes once daily for one month. Freshly isolated whole quadriceps and gastrocnemius muscle samples were mounted in OCT compound (Tissue-Tek), placed in an isopentane bath and slowly cooled in liquid nitrogen. Transverse sections at 20 μm-thickness were sectioned on a cryostat (Leica). The sections were fixed in pre-cooled acetone (-20° C.) for 10 min and washed with PBS. […] Slides were washed with PBST and then incubated with anti-rat Alexa Fluor 488-conjugated (Life Technologies) and anti-rabbit Alexa Fluor 594-conjugated (Life Technologies) antibodies diluted to 1:500 in blocking buffer for 2 h at room temperature. Slides were washed again with PBST and mounted with Fluoroshield with DAPI mounting medium (Sigma). Images were acquired using a confocal fluorescence microscope (Nikon A1). Quantification of capillaries and capillary density were performed using ImageJ software. TUNEL staining was performed in muscle sections using in situ BrdU-Red DNA fragmentation (TUNEL) assay kit (Abcam) as per manufacturer's protocol.

C57BL/6J mice [2] = assay: Muscle capillaries in mice with lentiviral EC-specific SIRT1 knockdown; format: in vivo, mouse; settings: 20-month old mice, SIRT1 miRNA #5 lentivirus, NMN 400, NaHS 20, GYY4137 20 mg/kg/day, four weeks
Experimental: Lentiviral particles were concentrated by ultracentrifugation (cite) and viral titer was determined by (cite kit) and injected at 1×10^10 TU/mouse carrying SIRT1 or NT miRNAs to 20-mo old WT C57BL/6J mice (NIA) via retro-orbital injection. Mice received two consecutive injections behind alternate eyes two days apart. 10 days post final injection, mice were assigned to different treatment groups.
Freshly isolated whole quadriceps and gastrocnemius muscle samples were mounted in OCT compound (Tissue-Tek), placed in an isopentane bath and slowly cooled in liquid nitrogen. Transverse sections at 20 μm-thickness were sectioned on a cryostat (Leica). The sections were fixed in pre-cooled acetone (−20° C.) for 10 min and washed with PBS. Slides were then blocked in normal goat serum and 5% Blocking Reagent (PerkinElmer) in PBST (PBS with 0.1% Triton-X) for 1 h at room temperature, and then incubated with anti-CD31 (ab56299, Abcam) and anti-Laminin (L9393, Sigma), GFP (ab6556, Abcam) or SIRT1 (HPA006295, Sigma) antibodies diluted in blocking buffer overnight at 4° C. […] Images were acquired using a confocal fluorescence microscope (Nikon A1). Quantification of capillaries and capillary density were performed using ImageJ software. […]

For `NC(=O)c1ccc[n+]([C@@H]2O[C@H](COP(=O)([O-])O)[C@@H](O)[C@H]2O)c1` [NMN, nicotinamide mononucleotide], the “cell growth (relative cell number)” value (HUVECs) was “promoted cell growth; also recorded: induced proliferation”, the NICD protein levels (Notch signaling; VEGF- or Dll4-stimulated HAECs, NMN 0.5 mM) was “promoted NICD reduction” and the “Notch target gene expression” value (Notch signaling; after stimulation with VEGF (50 ng/mL) or Dll4, NMN 0.5 mM) was “significantly decreased”. The “more capillaries in gastrocnemii than sedentary mice” value (C57BL/6J mice [1]; exercised and NMN-treated mice) was 70%, the “increase in vascular density and exercise capacity in conjunction with exercise versus without exercise” value (C57BL/6J mice [1]; mice (summary statement)) was “greater” and the “capillary density or exercise capacity” value (C57BL/6J mice [1]; young mice kept sedentary, NMN 400 mg/kg/day) was “did not increase”. The “increase in capillary density” value (C57BL/6J mice [1]; young mice, one month endurance training plus NMN 400 mg/kg/day, versus sedentary) was 3.2 fold and the “ability to increase vascularization in SIRT1 knockdown mice” value (C57BL/6J mice [2]) was “blocked in the SIRT1 knockdown mice”.
